Source: patent US4490370A, “Naphthylglycyl cephalosporin derivatives” (priority 1983, dated 1984)
In brackets after ≈: the same amount, converted by molar mass. Like-named read-outs stand apart in the source and are kept apart here.

Assays:
Staph. aureus = test: Agar dilution MIC, Staph. aureus; format: cell-based; details: Staphylococcus aureus
Text: (§1) The following Tables present typical minimum inhibitory concentrations (MIC's) in μg/ml for the compounds when evaluated against the indicated microorganisms.

H. influ. = test: Agar dilution MIC, H. influenza; format: cell-based; details: read-out: MIC
Text: as §1

B. Fragilis = test: Expanded spectrum MIC, B. Fragilis; format: cell-based; details: Bacteroides fragilis, Table III
Text: (§2) A typical and preferred compound provided by this invention is 7-(2-naphthylglycylamido)-3-methyl-3-cephem-4-carboxylic acid, the compound of Example 3. The antibacterial activity of this compound and several others of the invention has been determined in standard in vitro agar dilution assays against a variety of gram positive microorganisms. The following Tables present typical minimum inhibitory concentrations (MIC's) in μg/ml for the compounds when evaluated against the indicated microorganisms. MIC's for several known compounds are also presented for comparison.

[1] = system: β-lactamase (organism 265A); test: Stability to β-lactamases, 265A; format: biochemical; details: lower numbers mean greater stability
[2] = system: β-lactamase (organism PS185); test: Stability to β-lactamases, PS185; format: biochemical; details: lower numbers mean greater stability
β-lactamase (TEM) = test: Stability to β-lactamases, TEM; format: biochemical; details: lower numbers mean greater stability
[3] = system: β-lactamase (organism 1082E); test: Stability to β-lactamases, 1082E; format: biochemical; details: lower numbers mean greater stability
[4] = system: β-lactamase (organism 1313G); test: Stability to β-lactamases, 1313G; format: biochemical; details: lower numbers mean greater stability
P. magnus = test: Susceptibility of anaerobic cocci, agar-dilution, 24 hour MIC; format: cell-based; details: Finegoldia magna
Text: as §2
(§3) Susceptibility of Anaerobic Cocci
(§4) Isolates by the Agar-Dilution
(§5) Method-24 hour MIC's (μg/ml)

P. prevoti = test: as above; format: cell-based; details: isolate 1293
Text: as §2, §3, §4, §5

[5] = system: Peptococcus Asaccharolyticus; test: as above; format: cell-based; details: Peptoniphilus asaccharolyticus, isolate 1344
Text: as §2, §3, §4, §5

Peptococcus Constellatus = test: as above; format: cell-based; details: Streptococcus constellatus, isolate 1468
Text: as §2, §3, §4, §5

[6] = system: Peptostreptococcus anaerobius; test: as above; format: cell-based
Text: as §2, §3, §4, §5

[7] = system: Peptostreptococcus intermedius; test: as above; format: cell-based
Text: as §2, §3, §4, §5

Bacteroides fragilis = test: Susceptibility of anaerobes, agar-dilution, 24 hour MIC; format: cell-based
Propionibacterum acnes = test: as above; format: cell-based
Text: as §2, §3, §4, §5

Staph. epi = test: Agar dilution MIC, Staph. epi; format: cell-based
Text: as §1

Strep. A = test: Agar dilution MIC, Strep. A; format: cell-based
Text: as §2

Strep. PN = test: Agar dilution MIC, Strep. PN; format: cell-based; details: Table I, strain PARK; read-out: MIC
Text: as §1

Klebsiella = test: Agar dilution MIC, Klebsiella; format: cell-based; details: Klebsiella
Text: as §2

[8] = Table III, strain 8438, read-out: MIC
[9] = Table III, strain 9050, read-out: MIC
[10] = Table III, strain 9136, read-out: MIC

## N[C@@H](C(=O)N[C@@H]1C(=O)N2C(C(=O)O)=C(Cl)CS[C@H]12)c1ccccc1 [Cefaclor, 7-phenylglycylamido-3-chloro-3-cephem-4-carboxylic acid, reference compound]
Staph. aureus; [8]
  MIC: 1 µg/mL (≈ 2.72 µM)
Staph. aureus; [9]
  MIC: 2 µg/mL (≈ 5.44 µM)
Staph. aureus; [10]
  MIC: 2 µg/mL (≈ 5.44 µM)
Staph. aureus; Table III, strain 9290, read-out: MIC
  MIC: 8 µg/mL (≈ 21.8 µM)
Staph. aureus; Table III, strain 9767, read-out: MIC
  MIC: 2 µg/mL (≈ 5.44 µM)
H. influ.; Table III, strain 101
  MIC: 2 µg/mL (≈ 5.44 µM)
H. influ.; Table III, strain 102
  MIC: 16 µg/mL (≈ 43.5 µM)
H. influ.; Table III, strain 103
  MIC: 2 µg/mL (≈ 5.44 µM)
H. influ.; Table III, strain 104
  MIC: 1 µg/mL (≈ 2.72 µM)
H. influ.; Table III, strain 105
  MIC: 1 µg/mL (≈ 2.72 µM)
H. influ.; Table III, strain 106
  MIC: 2 µg/mL (≈ 5.44 µM)
H. influ.; Table III, strain 107
  MIC: 2 µg/mL (≈ 5.44 µM)
H. influ.; Table III, strain 108
  MIC: 1 µg/mL (≈ 2.72 µM)
H. influ.; Table III, strain 109
  MIC: 2 µg/mL (≈ 5.44 µM)
H. influ.; Table III, strain 110
  MIC: 1 µg/mL (≈ 2.72 µM)
H. influ.; Table III, strain 111
  MIC: 1 µg/mL (≈ 2.72 µM)
B. Fragilis; strain 180-821
  MIC: 64 µg/mL (≈ 174 µM)
B. Fragilis; strain 10668
  MIC: 64 µg/mL (≈ 174 µM)
B. Fragilis; strain 10683
  MIC: 16 µg/mL (≈ 43.5 µM)
B. Fragilis; strain 10695
  MIC: 32 µg/mL (≈ 87 µM)
B. Fragilis; strain 10750
  MIC: > 64 µg/mL
B. Fragilis; strain 10774
  MIC: > 64 µg/mL
B. Fragilis; strain 10817
  MIC: 64 µg/mL (≈ 174 µM)
B. Fragilis; strain 10837
  MIC: > 64 µg/mL
B. Fragilis; strain 107266
  MIC: 16 µg/mL (≈ 43.5 µM)
B. Fragilis; strain 107268
  MIC: 16 µg/mL (≈ 43.5 µM)
[1]
  Stability to β-lactamases: 138
[2]
  Stability to β-lactamases: 71
β-lactamase (TEM)
  Stability to β-lactamases: 23
[3]
  Stability to β-lactamases: 65
[4]
  Stability to β-lactamases: 4605

## CO[C@@]1(NC(=O)Cc2cccs2)C(=O)N2C(C(=O)O)=C(COC(N)=O)CS[C@@H]21 [Cefoxitin, reference compound]
P. magnus; isolate 1401
  MIC: 2 µg/mL (≈ 4.68 µM)
P. magnus; isolate 1477
  MIC: 0.5 µg/mL (≈ 1.17 µM)
P. prevoti
  MIC: 1 µg/mL (≈ 2.34 µM)
[5]
  MIC: 0.25 µg/mL (≈ 0.585 µM)
Peptococcus Constellatus
  MIC: 8 µg/mL (≈ 18.7 µM)
[6]; isolate 8
  MIC: 0.25 µg/mL (≈ 0.585 µM)
[6]; isolate 52
  MIC: 2 µg/mL (≈ 4.68 µM)
[6]; isolate 1477
  MIC: 1 µg/mL (≈ 2.34 µM)
[7]; isolate 1264
  MIC: 1 µg/mL (≈ 2.34 µM)
[7]; isolate 1524
  MIC: 4 µg/mL (≈ 9.36 µM)
[7]; isolate 1624
  MIC: 4 µg/mL (≈ 9.36 µM)
Bacteroides fragilis; isolate 200
  MIC: 8 µg/mL (≈ 18.7 µM)
Bacteroides fragilis; isolate 206
  MIC: 16 µg/mL (≈ 37.4 µM)
Bacteroides fragilis; isolate 3625
  MIC: 16 µg/mL (≈ 37.4 µM)
Bacteroides fragilis; isolate 7371A
  MIC: 8 µg/mL (≈ 18.7 µM)
Bacteroides fragilis; isolate 19671
  MIC: 16 µg/mL (≈ 37.4 µM)
Bacteroides fragilis; isolate 19681
  MIC: 32 µg/mL (≈ 74.9 µM)
Propionibacterum acnes; isolate 44
  MIC: 2 µg/mL (≈ 4.68 µM)
Propionibacterum acnes; isolate 79
  MIC: 8 µg/mL (≈ 18.7 µM)
Propionibacterum acnes; isolate 101
  MIC: 4 µg/mL (≈ 9.36 µM)
Propionibacterum acnes; isolate 104
  MIC: 4 µg/mL (≈ 9.36 µM)
Propionibacterum acnes; isolate 105
  MIC: 2 µg/mL (≈ 4.68 µM)
Propionibacterum acnes; isolate 5191
  MIC: ≤ 0.06 µg/mL
Propionibacterum acnes; isolate 5227
  MIC: 2 µg/mL (≈ 4.68 µM)
Propionibacterum acnes; isolate 5228
  MIC: 4 µg/mL (≈ 9.36 µM)
Propionibacterum acnes; isolate 5229
  MIC: 2 µg/mL (≈ 4.68 µM)
Propionibacterum acnes; isolate 5246
  MIC: 4 µg/mL (≈ 9.36 µM)

## CC1=C(C(=O)O)N2C(=O)[C@@H](NC(=O)[C@H](N)c3ccccc3)[C@H]2SC1 [Cephalexin, reference compound]
Staph. aureus; Table I, strain S13E
  MIC: 128 µg/mL (≈ 368 µM)
Staph. aureus; Table III expanded spectrum, strain 8725, read-out: MIC
  MIC: 2 µg/mL (≈ 5.76 µM)
Staph. aureus; [8]
  MIC: 1 µg/mL (≈ 2.88 µM)
Staph. aureus; Table III, strain 8787, read-out: MIC
  MIC: 1 µg/mL (≈ 2.88 µM)
Staph. aureus; [9]
  MIC: 2 µg/mL (≈ 5.76 µM)
Staph. aureus; [10]
  MIC: 2 µg/mL (≈ 5.76 µM)
Staph. epi
  MIC: 8 µg/mL (≈ 23 µM)
Staph. epi; Table I, strain EPI1, read-out: MIC
  MIC: 32 µg/mL (≈ 92.1 µM)
Strep. A
  MIC: 0.5 µg/mL (≈ 1.44 µM)
Strep. PN
  MIC: 2 µg/mL (≈ 5.76 µM)
H. influ.; Table I, strain 251
  MIC: 8 µg/mL (≈ 23 µM)
H. influ.; Table I, strain BRUN
  MIC: 8 µg/mL (≈ 23 µM)
H. influ.; Table III, strain 101
  MIC: 8 µg/mL (≈ 23 µM)
H. influ.; Table III, strain 102
  MIC: 16 µg/mL (≈ 46.1 µM)
H. influ.; Table III, strain 103
  MIC: 16 µg/mL (≈ 46.1 µM)
H. influ.; Table III, strain 104
  MIC: 16 µg/mL (≈ 46.1 µM)
H. influ.; Table III, strain 105
  MIC: 4 µg/mL (≈ 11.5 µM)
H. influ.; Table III, strain 106
  MIC: 8 µg/mL (≈ 23 µM)
H. influ.; Table III, strain 107
  MIC: 8 µg/mL (≈ 23 µM)
H. influ.; Table III, strain 108
  MIC: 8 µg/mL (≈ 23 µM)
H. influ.; Table III, strain 109
  MIC: 16 µg/mL (≈ 46.1 µM)
H. influ.; Table III, strain 110
  MIC: 8 µg/mL (≈ 23 µM)
H. influ.; Table III, strain 111
  MIC: 16 µg/mL (≈ 46.1 µM)
Klebsiella
  MIC: 4 µg/mL (≈ 11.5 µM)
B. Fragilis; strain 180-821, read-out: MIC
  MIC: 16 µg/mL (≈ 46.1 µM)
B. Fragilis; strain 10668, read-out: MIC
  MIC: > 64 µg/mL
B. Fragilis; strain 10683, read-out: MIC
  MIC: > 64 µg/mL
B. Fragilis; strain 10695, read-out: MIC
  MIC: 64 µg/mL (≈ 184 µM)
B. Fragilis; strain 10750, read-out: MIC
  MIC: 64 µg/mL (≈ 184 µM)
B. Fragilis; strain 10774, read-out: MIC
  MIC: > 64 µg/mL
B. Fragilis; strain 10817, read-out: MIC
  MIC: 16 µg/mL (≈ 46.1 µM)
B. Fragilis; strain 10837, read-out: MIC
  MIC: 16 µg/mL (≈ 46.1 µM)
B. Fragilis; strain 107266, read-out: MIC
  MIC: 32 µg/mL (≈ 92.1 µM)
B. Fragilis; strain 107268, read-out: MIC
  MIC: 16 µg/mL (≈ 46.1 µM)
